Source: patent US9708338B2, “Aromatic heterocyclylamine derivative having TRPV4-inhibiting activity” (Shionogi & Co., Ltd., priority 2013, dated 2017)

What was measured:
[1] = target: T1, human TRPV4 (Homo sapiens, UniProt Q9HBA0); experiment: Test Example 1 Measurement of TRPV4 inhibitory activity (IC50 value); type: cell-based; conditions: CHO-K1 cells stably expressing human TRPV4; Fluo 4-AM, FLIPR TETRA; final 1 μmol/L 4α-PDD
T1 construct: expressed in transfected cells; host or cells: CHO-K1
Procedure: (§1) For each compound, TRPV4 inhibitory activity was measured using cells. (Method) TRPV4 inhibitory activity of the compound was evaluated in accordance with the following procedure.
(§2) (1) The TRPV4 inhibitory activity was measured using CHO-K1 cells stably expressing human TRPV4.
(2) In the day before the experimental day, frozen cell were thawed and washed with the culture medium (MEM-α, 10% FBS, 2 mmol/L GlutaMax, 50 unit Penicillin, 50 μg/mL Streptomycin, 20 mmol/L HEPES). Then cells were suspended in the culture medium.
(3) The 384-well plates which hTRPV4/CHO cells were seeded at densities of 4000 cells/well in the culture medium and cultured in a CO2 incubator in the presence of 5% CO2 at 37° C. for overnight was used as assay plates.
(4) The assay plate was washed with assay buffer (Hanks, 20 mmol/L HEPES, 2.5 mmol/L probenecid, pH 7.4), and the buffer were remained at 20 μL/well.
(5) 10 μl of dye loading buffer (9 μmol/L Fluo 4-AM, 0.09% Pluronic F-127/assay buffer) was added to each well, then the assay plate was incubated in a CO2 incubator in the presence of 5% CO2 at 37° C. for one hour (final 3 μmol/L Fluo4-AM).
(6) The assay plate was washed with the assay buffer, and the buffers were remained at 20 μL/well. Then the assay plate was incubated for 10 min at room temperature.
(7) 20 μL/well of diluted compound solution was dispensed to each well in the compound plate, and mixed with built-in Pipette and Mixer of the Fluorescence analysis system FLIPR TETRA (Molecular devices).
(8) After incubation for 5 min, 20 μL/well of 4α-PDD solution were applied to each well of assay plate and mixed with the FLIPR TETRA (final 1 μmol/L 4α-PDD).
(9) The fluorescent intensity was measured with FLIPR TETRA system for 5 min from the point of time addition the compound solution, at Ex 470-495 nm, Em 515-575 nm wavelength.
(§3) In addition, TRPV4 inhibitory activity (IC50 value) of a compound was evaluated according to the following procedure.
(§4) (10) In the presence of the compound, the difference between maximal and minimal of fluorescent intensity value for 5 min from just before addition of 4α-PDD solution was calculated, and it was referred as Max−Min value. Max−Min value of the compound A at 1 μmol/L was defined as 100% inhibitory activity, Max−Min value in the absence of the compound was defined as 0% inhibitory activity. The TRPV4 inhibitory activity of the compound was calculated by the following formula. Inhibition ratio=(1−(Max−Min value of the compound−100% inhibitory activity)/(0% inhibitory activity−100% inhibitory activity))×100
Herein, the compound A is the compound I-186 described in PCT/JP2013/058722.
(11) Inhibitory activity was calculated at 10 points with three fold serial dilution, in the final concentration of the compound from 10 μmol/L to 0.5 nmol/L, the IC50 value (nmol/L) was calculated by logistic approximation method.

[2] = Test Example 7 Metabolism stability test; type: in vitro ADME; conditions: 0.5 μmol/L of test compound, human liver microsomes 0.5 mg protein/mL, 37° C.
Procedure: Using commercially available pooled human hepatic microsomes, a compound of the present invention was reacted for a constant time, and a remaining rate was calculated by comparing a reacted sample and an unreacted sample, thereby, a degree of metabolism in liver was assessed.
A reaction was performed (oxidative reaction) at 37° C. for 0 minute or 30 minutes in the presence of 1 mmol/L NADPH in 0.2 mL of a buffer (50 mmol/L Tris-HCl pH 7.4, 150 mmol/L potassium chloride, 10 mmol/L magnesium chloride) containing 0.5 mg protein/mL of human liver microsomes. After the reaction, 50 μL of the reaction solution was added to 100 μL of a methanol/acetonitrile=1/1 (v/v), mixed and centrifuged at 3000 rpm for 15 minutes. The compound of the present invention in the supernatant was quantified by LC/MS/MS, and a remaining amount of the compound of the present invention after the reaction was calculated, letting a compound amount at 0 minute reaction time to be 100%. Hydrolysis reaction was performed in the absence of NADPH and glucuronidation reaction was in the presence of 5 mmol/L UDP-glucuronic acid in place of NADPH, followed by similar operations. (Result) % inhibition was shown at 0.5 μmol/L of test compound.

[3] = target: T1, human TRPV4; experiment: Test Example 2 Measurement of TRPV4 inhibitory activity (IC50 value); type: cell-based; conditions: CHO-K1 cells stably expressing human TRPV4; DMEM 10% FBS, 5000 cells/well; final 0.15 μmol/L 4α-PDD
Procedure: as §1, §2
(2) In the day before the experimental day, frozen cell were thawed and washed with the culture medium (DMEM, 10% FBS, 2 mmol/L GlutaMax, 50 unit Penicillin, 50 μg/mL Streptomycin, 0.1 mmol/L Non-Essential Amino Acids, 25 mmol/L HEPES). Then cells were suspended in the culture medium. (3) The 384-well plates which hTRPV4/CHO cells were seeded at densities of 5000 cells/well in the culture medium and cultured in a CO2 incubator in the presence of 5% CO2 at 37° C. for overnight was used as assay plates. (4) The assay plate was washed with assay buffer (Hanks, 20 mmol/L HEPES, 2.5 mmol/L probenecid, pH7.4), and the buffer were remained at 20 μL/well. (5) 10 μl of dye loading buffer (3 μmol/L Fluo 4-AM, 0.03% Pluronic F-127/assay buffer) was added to each well, then the assay plate was incubated in a CO2 incubator in the presence of 5% CO2 at 37° C. for one hour (final 1 μmol/L Fluo4-AM). (6) The assay plate was washed with the assay buffer, and the buffers were remained at 20 μL/well. Then the assay plate was incubated for 10 min at room temperature. (7) 20 μL/well of diluted compound solution was dispensed to each well in the compound plate, and mixed with built-in Pipette and Mixer of the Fluorescence analysis system FLIPR TETRA (Molecular devices). (8) After incubation for 5 min, 20 μL/well of 4α-PDD solution were applied to each well of assay plate and mixed with the FLIPR TETRA (final 0.15 μmol/L 4α-PDD). (9) The fluorescent intensity was measured with FLIPR TETRA system for 5 min from the point of time addition the […], at Ex 470-495 nm, Em 515-575 nm wavelength.
as §3
as §4, with “of the above compound A” for “of the compound A”, “inhibitory activity))×100 (11) Inhibitory activity was calculated at 10 points with three fold serial dilution, in the final concentration of the compound from 10 μmol/L to 0.5 nmol/L, the IC50 value (nmol/L) was calculated by logistic approximation method. (Result)” for “inhibitory activity))×100”

T1 sequence (Q9HBA0 whole entry): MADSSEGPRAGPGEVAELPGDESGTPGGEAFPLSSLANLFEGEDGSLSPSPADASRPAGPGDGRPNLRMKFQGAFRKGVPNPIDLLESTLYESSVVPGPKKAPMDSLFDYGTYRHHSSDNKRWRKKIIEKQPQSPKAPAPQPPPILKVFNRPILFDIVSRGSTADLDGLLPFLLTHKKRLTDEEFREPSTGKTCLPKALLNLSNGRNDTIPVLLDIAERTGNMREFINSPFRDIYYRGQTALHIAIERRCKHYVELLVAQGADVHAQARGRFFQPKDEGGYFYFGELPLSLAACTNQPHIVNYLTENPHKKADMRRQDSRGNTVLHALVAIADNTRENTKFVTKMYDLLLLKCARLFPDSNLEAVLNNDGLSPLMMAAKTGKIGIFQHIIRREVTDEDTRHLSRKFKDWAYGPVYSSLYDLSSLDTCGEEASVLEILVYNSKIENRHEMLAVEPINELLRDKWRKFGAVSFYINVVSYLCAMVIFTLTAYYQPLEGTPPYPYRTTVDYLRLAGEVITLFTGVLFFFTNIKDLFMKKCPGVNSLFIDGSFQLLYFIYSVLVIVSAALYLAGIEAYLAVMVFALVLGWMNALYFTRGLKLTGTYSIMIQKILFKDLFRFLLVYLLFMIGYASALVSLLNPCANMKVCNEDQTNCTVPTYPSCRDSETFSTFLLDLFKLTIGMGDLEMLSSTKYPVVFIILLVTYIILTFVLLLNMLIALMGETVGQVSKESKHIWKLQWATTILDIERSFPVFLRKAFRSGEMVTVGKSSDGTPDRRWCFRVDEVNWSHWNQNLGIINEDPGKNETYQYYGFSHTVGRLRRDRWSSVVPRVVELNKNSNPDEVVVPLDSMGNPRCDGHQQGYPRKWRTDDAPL

Row | Compound | IC50 [1] [nM] | also measured
1 | Cc1nc(C(C)O)sc1-c1csc(Nc2ccc(CCOc3ccc(Cl)cc3F)cn2)n1 (centres unmarked) [Compound I-6] | 52 | 
2 | Cc1nc([C@H](C)O)sc1-c1csc(Nc2ccc3c(n2)CCCC3Nc2ccc(Cl)cc2F)n1 (some centres unmarked) [Compound I-10] | 14 | 
3 | Cc1nc(C)c(-c2csc(Nc3ccc(C(=O)Cc4ccc(Cl)cc4)cn3)n2)s1 [Compound I-13] | 6.4 | 
4 | Cc1nc(C)c(-c2csc(Nc3ccc(S(=O)(=O)Cc4ccc(Cl)cc4)cn3)n2)s1 [Compound I-17] | 37 | 
5 | Cc1nc(C)c(-c2c[nH]c(Nc3ccc(CNc4ccc(Cl)cc4F)cn3)n2)s1 [Compound I-41] | 42 | 
6 | Cc1nc(C)c(-c2csc(Nc3ccc(CNc4ccc(Cl)cc4F)cn3)n2)o1 [Compound I-43] | 39 | 
7 | Cc1nc([C@H](C)O)sc1-c1csc(Nc2ccc(COC(C(F)(F)F)C(F)(F)F)cn2)n1 [Compound I-45] | 8.1 | 
8 | CC(=O)N(Cc1ccc(Nc2nc(-c3sc(C)nc3C)cs2)nc1)c1ccc(Cl)cc1F [Compound I-49] | 8.6 | 
9 | Cc1nc(C)c(-c2csc(Nc3ccc(/C=C/c4ccc(Cl)cc4)cn3)n2)s1 [Compound I-54] | 27 | 
10 | CC(O)c1nc(C(O)CO)c(-c2csc(Nc3ccc(CNc4ccc(Cl)cc4F)cn3)n2)s1 (centres unmarked) [Compound I-69] |  | Percent of compound remaining after 30 min incubation [2]: 106%
11 | CC(O)c1nc(CCO)c(-c2csc(Nc3ccc(CNc4ccc(Cl)cc4F)cn3)n2)s1 (centres unmarked) [Compound I-79] | 27 | 
12 | CO[C@H]1C[C@H]2CC[C@@H](C1)N2C(=O)c1ccc(Nc2nc(-c3sc(C(N)=O)nc3C)cs2)nc1 [Compound I-118] | 9.1 | 
13 | CC(O)c1nc(CC#N)c(-c2csc(Nc3ccc(CNc4ccc(Cl)cc4F)cn3)n2)s1 (centres unmarked) [Compound I-132] | 14 | 
14 | Cc1nc(C(C)O)sc1-c1csc(Nc2ccc(C(=O)Nc3ccc(C#N)cc3F)cn2)n1 (centres unmarked) [Compound I-134] | 6.8 | 
15 | Cc1nc(C(C)O)sc1-c1csc(Nc2ccc(OC(F)(F)F)cn2)n1 (centres unmarked) [Compound I-140] | 42 | 
16 | Cc1nc(C(C)O)sc1-c1csc(Nc2ccc(CCNc3ccc(Cl)cc3F)cn2)n1 (centres unmarked) [Compound I-150] | 30 | 

Row | Compound | IC50 [1] [nM] | also measured
17 | COCCN(Cc1ccc(Nc2nc(-c3sc(C)nc3C)cs2)nc1)c1ccc(Cl)cc1F [Compound I-184] | 4 | 
18 | Cc1nc(C)c(-c2csc(Nc3ccc(C(C)Nc4ccc(Cl)cc4)cn3)n2)s1 (centres unmarked) [Compound I-188] | 6.4 | 
19 | Cc1nc(C)c(-c2csc(Nc3ccc(CN(CC(C)C)c4ccc(Cl)cc4F)cn3)n2)s1 [Compound I-200] | 2.5 | 
20 | Cc1nc(C)c(-c2csc(Nc3ccc(CNC4(C(F)(F)F)CCCC4)cn3)n2)s1 [Compound I-228] | 1.7 | 
21 | Cc1nc(C)c(-c2csc(Nc3ccc(C(=O)Nc4cccnc4)cn3)n2)s1 [Compound I-257] | 14 | 
22 | Cc1nc(C)c(-c2csc(Nc3ccc(C(=O)Nc4ccc(Oc5ccccc5)cc4)cn3)n2)s1 [Compound I-270] | 26 | 
23 | Cc1nc(C)c(-c2csc(Nc3ccc(C(=O)NC(C)(C)C(F)(F)F)cn3)n2)s1 [Compound I-274] | 3.3 | 
24 | Cc1nc(C)c(-c2csc(Nc3ccc(OCc4ccc(Cl)cc4)cn3)n2)s1 [Compound I-312] | 24 | 
25 | CCN(CC)C(=O)N1C[C@H]2CC[C@@H](C1)N2C(=O)c1ccc(Nc2nc(-c3sc(C)nc3C)cs2)nc1 [Compound I-592] |  | IC50 [3]: 3.9 nM
26 | Cc1nc(C)c(-c2csc(Nc3ccc(C(=O)N4[C@@H]5CC[C@H]4COC5)cn3)n2)s1 [Compound I-662] |  | IC50 [3]: 6.7 nM
27 | Cc1nc(C)c(-c2csc(Nc3ccc(C(=O)N4C[C@H]5CC[C@@H](C4)O5)cn3)n2)s1 [Compound I-703] |  | IC50 [3]: 13 nM
28 | CO[C@H]1C[C@H]2CC[C@@H](C1)N2C(=O)c1ccc(Nc2nc(-c3sc(C)nc3C)cs2)nc1 [Compound I-719] |  | IC50 [3]: 1.6 nM
29 | Cc1nc(C)c(-c2csc(Nc3ccc(C(=O)N4[C@@H]5CC[C@H]4COC5)c(F)n3)n2)s1 [Compound I-744] |  | IC50 [3]: 4.2 nM
30 | Cc1nc(C)c(-c2csc(Nc3ccc(CN4[C@@H]5CC[C@H]4COC5)cn3)n2)s1 [Compound I-799] |  | IC50 [3]: 6.3 nM
31 | Cc1nc(C)c(-c2csc(Nc3ccc(C(=O)N4CCOc5ccccc54)cn3)n2)s1 [Compound I-831] |  | IC50 [3]: 2.9 nM
32 | Cc1nc(C)c(-c2csc(Nc3ccc(C(=O)N4[C@@H]5CC[C@H]4CSC5)cn3)n2)s1 [Compound I-843] |  | IC50 [3]: 2.6 nM
